Source: ChEMBL document CHEMBL1201862, “PubChem BioAssay data set” (2004)
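Five compound concentrations were applied to cells in 96-well plates for 48 hours; endpoints were derived by simple linear interpolation of the resulting dose-response curve. GI50: concentration for 50% inhibition of growth.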 Calls of active or inactive are those of the source. No stated cut-off is given here; in the data, active = GI50 up to about 1.1 µM and inactive = higher.

Tests used:
Test in all cases: NCI-60 cell line screen, 48 h
[1] = system: SF-295
[2] = system: TK-10
[3] = system: SK-MEL-2
[4] = system: UACC-62
[5] = system: UO-31
[6] = system: OVCAR-8
[7] = system: CCRF-CEM
[8] = system: HOP-62
[9] = system: DLD-1
[10] = system: MOLT-4
[11] = system: SN12C
[12] = system: HT-29
[13] = system: SK-OV-3
[14] = system: HOP-92
[15] = system: M14
[16] = system: NCI-H460
[17] = system: SK-MEL-28
[18] = system: HCT-15
[19] = system: Malme-3M
[20] = system: SW-620
[21] = system: K562
[22] = system: NCI-H522
[23] = system: SNB-75
[24] = system: OVCAR-3
[25] = system: A549
[26] = system: SNB-19
[27] = system: SNB-78
[28] = system: NCI-H226
[29] = system: ACHN
[30] = system: UACC-257
[31] = system: OVCAR-4
[32] = system: LXFL 529
[33] = system: KM-20L2
[34] = system: 786-0
[35] = system: IGROV-1
[36] = system: OVCAR-5
[37] = system: COLO 205
[38] = system: KM12
[39] = system: A498
[40] = system: SF-268
[41] = system: SK-MEL-5
[42] = system: HCC 2998
[43] = system: EKVX
[44] = system: RXF 393
[45] = system: DMS-273
[46] = system: NCI-H23
[47] = system: SF-539
[48] = system: M19-MEL
[49] = system: DMS-114
[50] = system: RPMI-8226
[51] = system: CAKI-1
[52] = system: LOX IMVI
[53] = system: HL-60
[54] = system: U-251
[55] = system: HCT-116

COc1ccc(C(=O)N2c3ccccc3N(C)n3cccc3C2CC(=O)O)cc1 (configuration not stated) was tested, and the GI50 [1] was > 100 µM (inactive), the GI50 [2] was > 100 µM (inactive) and the GI50 [3] was > 100 µM (inactive). The GI50 [4] was > 100 µM (inactive), the GI50 [5] was > 100 µM (inactive) and the GI50 [6] was > 100 µM (inactive). The GI50 [7] was > 100 µM (inactive), the GI50 [8] was > 100 µM (inactive) and the GI50 [9] was > 100 µM (inactive). For the same compound, the GI50 [10] was > 100 µM (inactive), the GI50 [11] was > 100 µM (inactive) and the GI50 [12] was > 100 µM (inactive). The GI50 [13] was > 100 µM (inactive), the GI50 [14] was > 100 µM (inactive) and the GI50 [15] was > 100 µM (inactive). For the same compound, the GI50 [16] was > 100 µM (inactive), the GI50 [17] was > 100 µM (inactive) and the GI50 [18] was greater than 100 µM. For the same compound, the GI50 [19] was > 100 µM (inactive), the GI50 [20] was > 100 µM (inactive) and the GI50 [21] was > 100 µM (inactive). For the same compound, the GI50 [22] was > 100 µM (inactive), the GI50 [23] was > 100 µM (inactive) and the GI50 [24] was > 100 µM (inactive). The GI50 [25] was > 100 µM (inactive), the GI50 [26] was > 100 µM (inactive) and the GI50 [27] was > 100 µM (inactive). The GI50 [28] was > 100 µM (inactive), the GI50 [29] was > 100 µM (inactive) and the GI50 [30] was > 100 µM (inactive). The GI50 [31] was > 100 µM (inactive), the GI50 [32] was > 100 µM (inactive) and the GI50 [33] was > 100 µM (inactive). The GI50 [34] was > 100 µM (inactive), the GI50 [35] was > 100 µM (inactive) and the GI50 [36] was > 100 µM (inactive). For the same compound, the GI50 [37] was > 100 µM (inactive), the GI50 [38] was > 100 µM (inactive) and the GI50 [39] was > 100 µM (inactive). The GI50 [40] was > 100 µM (inactive), the GI50 [41] was > 100 µM (inactive) and the GI50 [42] was > 100 µM (inactive). For the same compound, the GI50 [43] was > 100 µM (inactive), the GI50 [44] was > 100 µM (inactive) and the GI50 [45] was > 100 µM (inactive). The GI50 [46] was > 100 µM (inactive), the GI50 [47] was > 100 µM (inactive) and the GI50 [48] was > 100 µM (inactive). The GI50 [49] was > 100 µM (inactive), the GI50 [50] was > 100 µM (inactive) and the GI50 [51] was > 100 µM (inactive). The GI50 [52] was > 100 µM (inactive) and the GI50 [53] was > 100 µM (inactive).
With COc1cccc(C2CC(C)=Nc3c(ccc4c3C(=O)c3ccccc3C4=O)N2)c1O (configuration not stated) the GI50 [54] was 3.78 µM (inactive), the GI50 [4] was > 100 µM (inactive) and the GI50 [55] was > 100 µM (inactive). The GI50 [5] was 33 µM (inactive), the GI50 [6] was 4.94 µM (inactive) and the GI50 [8] was 3.24 µM (inactive). The GI50 [9] was 15 µM (inactive), the GI50 [11] was > 100 µM (inactive) and the GI50 [12] was > 100 µM (inactive). The GI50 [14] was > 100 µM (inactive), the GI50 [15] was 9.2 µM (inactive) and the GI50 [16] was 7.52 µM (inactive). The GI50 [18] was 26.9 µM, the GI50 [19] was > 100 µM (inactive) and the GI50 [20] was 20.5 µM (inactive). The GI50 [21] was > 100 µM (inactive), the GI50 [23] was > 100 µM (inactive) and the GI50 [24] was 9.71 µM (inactive). For the same compound, the GI50 [25] was > 100 µM (inactive), the GI50 [26] was > 100 µM (inactive) and the GI50 [27] was > 100 µM (inactive). For the same compound, the GI50 [28] was 33.6 µM (inactive), the GI50 [29] was 9.46 µM (inactive) and the GI50 [30] was 3 µM (inactive). For the same compound, the GI50 [32] was > 100 µM (inactive), the GI50 [33] was > 100 µM (inactive) and the GI50 [34] was > 100 µM (inactive). The GI50 [35] was > 100 µM (inactive), the GI50 [36] was > 100 µM (inactive) and the GI50 [37] was > 100 µM (inactive). The GI50 [38] was 3.59 µM (inactive), the GI50 [39] was > 100 µM (inactive) and the GI50 [42] was > 100 µM (inactive). For the same compound, the GI50 [43] was > 100 µM (inactive), the GI50 [46] was > 100 µM (inactive) and the GI50 [48] was 9.62 µM (inactive). The GI50 [49] was > 100 µM (inactive), the GI50 [50] was 79.3 µM (inactive) and the GI50 [53] was 5.41 µM (inactive).
